Values of other authors, collected in patent US11725025B2, “Progesterone phosphate analogs and uses related thereto” (EMORY UNIVERSITY, priority 2013, dated 2023).

Tests used:
[1] = tested on: moderate to severe TBI patients; conditions: 3 days of intravenous progesterone treatment; 100 moderate to severe TBI patients

## CC(=O)[C@H]1CC[C@H]2[C@@H]3CCC4=CC(=O)CC[C@]4(C)[C@H]3CC[C@]12C [progesterone]
[1]
  functional outcomes at 30 days post-injury: significantly improved
  reduction of mortality: over 60%
other
  solubility in aqueous-based formulations: insoluble
